Test: solvent given as SMILES

Clc1cc(-c2cc(Cl)c(Cl)c(Cl)c2Cl)c(Cl)c(Cl)c1Cl
Conditions | solvation free energy, 298 K [kcal/mol]
in CCCCCCCCO | -15.2
in O | -3.77

C1CCNCC1
Conditions | solvation free energy, 298 K [kcal/mol]
in C1CCOC1 | -5.22
in C1COCCO1 | -4.95
in COC(C)(C)C | -4.87
in O | -5.11

CCCCc1ccccc1
Conditions | solvation free energy, 298 K [kcal/mol]
in C1CCOC1 | -7.33
in CC#N | -6.1
in CC(C)O | -5.98
in CCC(C)=O | -6.73
in CCCCCCC | -6.58
in CCCCCCCCCCCCCCCC | -6.44
in CCO | -5.72
in CO | -5.81
in O | -0.37
in O=Cc1ccco1 | -5.99
in OCCOCCO | -4.81

O=C1C=CC(=O)C=C1
Conditions | solvation free energy, 298 K [kcal/mol]
in O | -6.5

CC1CCC(C)(C)C1 (stereo not drawn)
Conditions | solvation free energy, 298 K [kcal/mol]
in O | 2.47

O=[N+]([O-])c1cc(Cl)ccc1Cl
Conditions | solvation free energy, 298 K [kcal/mol]
in C1CCCCC1 | -8.11
in CC1CCCCC1 | -8.06
in CC#N | -9.34
in CC(C)CC(C)(C)C | -7.63
in CC(C)CCO | -8.13
in CC(C)CO | -8.01
in CC(C)O | -8.07
in CCC(C)O | -7.92
in CCCCCC | -7.77
in CCCCCCC | -7.77
in CCCCCCCC | -7.75
in CCCCCCCCCC | -7.74
in CCCCCCCCCCCC | -7.71
in CCCCCCCCCO | -8.13
in CCCCCCCCO | -8.18
in CCCCCCCO | -8.19
in CCCCCCO | -8.22
in CCCCCO | -8.23
in CCCCO | -8.23
in CCCO | -8.23
in CCO | -8.32
in COC(C)=O | -9.35
in Cc1cccc(C)c1 | -9.25
in Cc1ccccc1 | -9.28

C1CCCC1
Conditions | solvation free energy, 298 K [kcal/mol]
in CC#N | -2.52
in CC(C)CCCC(C)CCCC(C)CCCCC(C)CCCC(C)CCCC(C)C | -3.23
in CC(C)O | -2.89
in CCCC#N | -2.86
in CCCCCC | -3.7
in CCCCCCCCCC | -3.46
in CCCCCCCCCCCC | -3.37
in CCCCCCCCCCCCCCCC | -3.31
in CCCCCCCO | -3.1
in CCCO | -2.89
in CCO | -2.78
in CN1CCCC1=O | -2.7
in CN1CCCCC1=O | -2.81
in CN1CCN(C)C1=O | -2.56
in CN(C)C=O | -2.73
in CO | -2.62
in COC(C)(C)C | -3.55
in ClC(Cl)(Cl)Cl | -3.78
in ClC=CCl | -3.78
in N#CCCCCC#N | -2.08
in N#Cc1ccccc1 | -3
in NCCO | -1.24
in O | 1.2
in O=CN1CCOCC1 | -2.22
in O=Cc1ccco1 | -2.41
in OC1CCCCC1 | -3.02
in OCc1ccccc1 | -2.7
in OCc1ccco1 | -2.39
in S=C=S | -3.84
in c1ccc2ncccc2c1 | -3.21

OCCCO
Conditions | solvation free energy, 298 K [kcal/mol]
in O | -9.96

CC(C)(C)Cl
Conditions | solvation free energy, 298 K [kcal/mol]
in Brc1cccc2ccccc12 | -3.15
in Brc1ccccc1 | -3.44
in C1CCCCC1 | -3.64
in C1CCOCC1 | -3.82
in C1COCCO1 | -3.36
in C=CCCCCCCCCCCCCCC | -3.07
in CC(=O)N(C)C | -3.1
in CC(=O)OCc1ccccc1 | -3.28
in CC(C)(C)O | -2.95
in CC(C)=O | -3.46
in CC(C)CC(C)(C)C | -3.29
in CC(C)OC(C)C | -3.53
in CC(O)C(C)O | -2.37
in CC(O)CCO | -2.14
in CC(O)CO | -2.29
in CCC(C)=O | -3.66
in CCC(O)CO | -2.76
in CCCCCC | -3.43
in CCCCCCC | -3.47
in CCCCCCCC | -3.35
in CCCCCCO | -3.14
in CCCCCO | -3.23
in CCCCO | -3.08
in CCO | -3.22
in CCOC(C)=O | -3.66
in CCOCC | -3.38
in CN1CCCC1=O | -2.97
in CN(C)C=O | -3.15
in CNC=O | -3.02
in CO | -3.11
in COC(C)(C)C | -3.7
in COCCO | -3.3
in Cc1ccc(C)cc1 | -3.58
in ClC(Cl)(Cl)Cl | -3.66
in ClCCCl | -3.69
in Clc1ccccc1 | -3.56
in N#Cc1ccccc1 | -3.15
in O | 1.09
in O=C1CCCCC1 | -3.64
in OCCO | -1.8
in OCCOCCO | -2.39
in OCCOCCOCCO | -2.49
in c1ccc2ncccc2c1 | -3.18
in c1ccccc1 | -3.93

CCCCCCN
Conditions | solvation free energy, 298 K [kcal/mol]
in CCCCCCC | -5.51
in O | -4

O=C(O)c1cc([N+](=O)[O-])cc([N+](=O)[O-])c1
Conditions | solvation free energy, 298 K [kcal/mol]
in C1CCOC1 | -14.9
in C1COCCO1 | -14.6
in CC(C)CCO | -13.8
in CC(C)CO | -13.7
in CC(C)O | -14.1
in CC(C)OC(C)C | -13
in CCC(C)O | -13.9
in CCCC(C)O | -13.9
in CCCCCCCCCCO | -13.6
in CCCCCCCCO | -13.7
in CCCCCCCO | -13.7
in CCCCCCO | -13.8
in CCCCCO | -13.9
in CCCCCOC(C)=O | -13.7
in CCCCO | -14
in CCCCOC(C)=O | -13.9
in CCCO | -14.2
in CCO | -14.4
in CCOC(C)=O | -14.2
in CCOCC | -13.9
in CN(C)C=O | -14.8
in O | -11.3

ClC1=C(Cl)C2(Cl)C3C(Cl)CC(Cl)C3C1(Cl)C2(Cl)Cl (stereo not drawn)
Conditions | solvation free energy, 298 K [kcal/mol]
in O | -3.44

N#Cc1cccc(O)c1
Conditions | solvation free energy, 298 K [kcal/mol]
in O | -9.65

COS(C)(=O)=O
Conditions | solvation free energy, 298 K [kcal/mol]
in O | -4.87

c1ccc2c(c1)Cc1ccccc1C2
Conditions | solvation free energy, 298 K [kcal/mol]
in O | -3.78

CN(C)c1ccc(C(=O)O)cc1
Conditions | solvation free energy, 298 K [kcal/mol]
in CN(C)C=O | -13.8
in O | -9.28

CC1=C(C)C2CCC1C2
Conditions | solvation free energy, 298 K [kcal/mol]
in O | 0.53

CCC(C)CCCC(C)CCCC(C)CCCC(C)C (stereo not drawn)
Conditions | solvation free energy, 298 K [kcal/mol]
in O | 4.83

CC(C)(C)c1ccccc1
Conditions | solvation free energy, 298 K [kcal/mol]
in C1CCOC1 | -6.93
in CC#N | -5.86
in CC(C)O | -5.63
in CO | -5.52
in O | -0.42

Cn1c(=O)c2c(ncn2C)n(C)c1=O
Conditions | solvation free energy, 298 K [kcal/mol]
in O | -12.6

CNC
Conditions | solvation free energy, 298 K [kcal/mol]
in CCCCCC | -2.48
in CCCCCCCCCC | -2.31
in CCCCCCCCO | -2.73
in CCCO | -2.99
in CCO | -3.27
in CN(C)C=O | -2.88
in CO | -3.51
in ClC(Cl)(Cl)Cl | -2.88
in N#Cc1ccccc1 | -2.8
in O | -4.3

CCC(O)C(C)C (stereo not drawn)
Conditions | solvation free energy, 298 K [kcal/mol]
in CC(C)CC(C)(C)C | -4.53
in CCCCCCCC | -4.72
in CCCCCCCCCC | -4.67
in O | -3.88

Cc1cc(C)c2ccccc2c1
Conditions | solvation free energy, 298 K [kcal/mol]
in O | -2.47

CCCCOCCOC(=O)c1ccccc1C(=O)OCCOCCCC
Conditions | solvation free energy, 298 K [kcal/mol]
in O | -12.8

CSc1nc(N=[N+]=[N-])nc(NC(C)C)n1
Conditions | solvation free energy, 298 K [kcal/mol]
in O | -8.19

C=CC=O
Conditions | solvation free energy, 298 K [kcal/mol]
in CCCCCO | -3.22
in CCCCO | -3.21
in O | -3.16

CCNc1nc(NCC)nc(SC)n1
Conditions | solvation free energy, 298 K [kcal/mol]
in O | -10.1

CCCCCCCCCCCCCC(=O)OCC
Conditions | solvation free energy, 298 K [kcal/mol]
in O | -7.32

Reference: the CombiSolv-Exp solvation set (Vermeire and Green 2021)
